Reference: patent US20250171459A1, “2-METHYL-4',5'-DIHYDROSPIRO[PIPERIDINE-4,7'-THIENO[2,3-C]PYRAN] DERIVATIVES AS INHIBITORS OF APOL1 AND METHODS OF USING SAME” (Vertex Pharmaceuticals Incorporated, priority 2022, published 2025)

Molecular target: T1, APOL1 (Homo sapiens, UniProt O14791)
T1 sequence (O14791 1-398 S342G/I384M): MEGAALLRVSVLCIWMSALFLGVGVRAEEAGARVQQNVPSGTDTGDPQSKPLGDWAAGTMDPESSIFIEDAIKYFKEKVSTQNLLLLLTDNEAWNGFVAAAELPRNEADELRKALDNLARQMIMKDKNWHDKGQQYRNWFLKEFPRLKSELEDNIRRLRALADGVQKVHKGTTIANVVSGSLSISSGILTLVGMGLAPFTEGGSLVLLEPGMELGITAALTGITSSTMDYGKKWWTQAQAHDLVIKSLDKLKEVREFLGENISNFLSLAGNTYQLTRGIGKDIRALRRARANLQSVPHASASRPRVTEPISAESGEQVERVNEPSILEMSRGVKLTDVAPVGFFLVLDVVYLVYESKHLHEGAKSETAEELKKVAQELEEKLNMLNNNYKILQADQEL
Test: MultiTox-Fluor Multiplex Cytotoxicity Assay in tet-inducible APOL1 T-REx-HEK293 cells (cell rescue, ratio of dead to live cells)
Assay type: cell-based
Settings: tet-inducible transgenic APOL1 T-REx-HEK293 cell lines, 50 ng/mL tet, 24 hours; read-out: IP50 (i.e., IC50 for cell proliferation)
How it was run: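 T-REx-HEK293 cells with tet-inducible APOL1 were treated with compound (10 μM top, 10-point 3-fold dilution, duplicate) plus 50 ng/mL tetracycline for 24 h at 37° C, in DMEM with 2% tet-free FBS. MultiTox-Fluor protease signals gave a dead/live ratio, normalized to no tet (100% viability) and tet alone (0%).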

Q: Which IC50 does the source give for C[C@H]1C[C@]2(CCN1Cc1cn(CCS(C)(=O)=O)nn1)OCCc1cc(Cl)sc12 [Compound 695, (2′S,7S)-2-chloro-2′-methyl-1′-[[1-(2-methylsulfonylethyl)triazol-4-yl]methyl]spiro[4,5-dihydrothieno[2,3-c]pyran-7,4′-piperidine]] here?
A: 0.5 to 1 µM

Q: How did the IC50 turn out when CCc1cc2c(s1)CCOC21CCN(Cc2cn(CC(C)(O)COC)nn2)C(C)C1 (stereo not shown) [Compound 84] was run?
A: < 0.1 µM

Q: With C[C@H]1C[C@@]2(CCN1Cc1cnn(C)c1)OCC(O)c1sc(C(F)(F)F)cc12 (stereo partly drawn) [Compound 542, (2′S,4R)-2′-methyl-1′-[(1-methylpyrazol-4-yl)methyl]-2-(trifluoromethyl)spiro[6,7-dihydrothieno[3,2-c]pyran-4,4′-piperidine]-7-ol] as the molecule, how does the IC50 read?
A: < 0.1 µM

Q: CCc1cc2c(s1)CCO[C@@]21CCN(Cc2cnc(NC3CNC(=O)C3)nc2)[C@@H](C)C1 (stereo partly shown) [Compound 218] was tested. Which IC50 did it give?
A: < 0.1 µM

Q: With C[C@H]1C[C@@]2(CCN1Cc1cccc(Cl)c1O)OCCc1cc(Cl)sc12 [Compound 690] as the molecule, how does the IC50 read?
A: 0.5 to 1 µM

Q: For C[C@H]1C[C@@]2(CCN1Cc1ccc(S(C)(=O)=O)cc1)OCCc1cc(Cl)sc12 [Compound 654], which IC50 is on record?
A: 0.1 to 0.5 µM

Q: CCC1Cc2sc(Cl)cc2C2(CCN(Cc3cnn(C)c3)[C@@H](C)C2)O1 (stereo partly shown) [Compound 533] was tested. Which IC50 did it give?
A: 0.5 to 1 µM

Q: C[C@H]1C[C@@]2(CCN1CC1CCN(S(C)(=O)=O)CC1)OCCc1c2sc(Cl)c1CO [Compound 748] was tested. Which IC50 did it give?
A: 0.1 to 0.5 µM

Q: C[C@H]1C[C@@]2(CCN1Cc1cn(CC(O)C(C)(C)O)nn1)OCCc1cc(CC(F)F)sc12 (stereo partly shown) [Compound 548] was tested. Which IC50 did it give?
A: < 0.1 µM

Q: For C[C@H]1C[C@@]2(CCN1C[C@@H](O)CO)OCCc1cc(CC(F)F)sc12 [Compound 598], which IC50 is on record?
A: 0.1 to 0.5 µM

Q: Which IC50 does the source give for CCc1cc2c(s1)CCO[C@@]21CCN(Cc2cn(CCN(CCO)CCO)nn2)[C@@H](C)C1 [Compound 182] here?
A: 0.1 to 0.5 µM

Q: Which IC50 does the source give for C[C@H]1C[C@@]2(CCN1Cc1cnc(NC(C)(C)CO)nc1)OC[C@](O)(C(F)F)c1cc(Cl)sc12 [Compound 830] here?
A: < 0.1 µM

Q: For C[C@H]1C[C@@]2(CCN1Cc1cnn(CC(C)(CO)CO)c1)OC[C@](O)(C(F)F)c1cc(Cl)sc12 [Compound 833], which IC50 is on record?
A: < 0.1 µM

Q: C[C@H]1C[C@@]2(CCN1CC1CCC1)OCCc1cc(CC(F)F)sc12 [Compound 576] was tested. Which IC50 did it give?
A: 0.1 to 0.5 µM

Q: For CCc1cc2c(s1)CCO[C@@]21CCN(Cc2cn(CC(N)=O)nn2)[C@@H](C)C1 [Compound 181], which IC50 is on record?
A: 0.1 to 0.5 µM

Q: How did the IC50 turn out when CCc1cc2c(s1)CCO[C@@]21CCN(Cc2cn(Cc3ncccn3)nn2)[C@@H](C)C1 [Compound 51] was run?
A: 0.1 to 0.5 µM

Q: How did the IC50 turn out when CCc1cc2c(s1)CCO[C@@]21CCN(CC(O)CC(F)(F)F)[C@@H](C)C1 (stereo partly shown) [Compound 244] was run?
A: 0.1 to 0.5 µM

Q: With CCc1cc2c(s1)CCO[C@@]21CCN(Cc2cn(CC3(C)COC3)nn2)[C@@H](C)C1 [Compound 118] as the molecule, how does the IC50 read?
A: 0.1 to 0.5 µM

Q: For CCc1cc2c(s1)CCO[C@@]21CCN(Cc2nc3ccccc3[nH]2)[C@@H](C)C1 [Compound 291], which IC50 is on record?
A: 0.1 to 0.5 µM

Q: For CCc1cc2c(s1)CCO[C@@]21CCN(C[C@H]2C[C@@H](NC(=O)C(C)(C)C#N)C2)[C@@H](C)C1 [Compound 336], which IC50 is on record?
A: 0.1 to 0.5 µM

Q: How did the IC50 turn out when CCc1cc2c(s1)CCOC21CCN(Cc2ccc(C(=O)NCC3CCC(O)C3)nc2)CC1 (stereo not shown) [Compound 1060] was run?
A: 0.1 to 0.5 µM

Q: Which IC50 does the source give for Cc1ncc(CN2CC[C@]3(C[C@@H]2C)OCCc2cc(Cl)sc23)n1C [Compound 683] here?
A: 0.5 to 1 µM

Q: With CCc1cc2c(s1)CCO[C@@]21CCN(Cc2cn(C(C)(C)CCS(C)(=O)=O)nn2)[C@@H](C)C1 [Compound 192] as the molecule, how does the IC50 read?
A: 0.5 to 1 µM

Q: COCC(O)Cn1cc(CN2CC[C@]3(C[C@@H]2C)OCCc2c3sc(C(F)(F)F)c2CO)cn1 (stereo partly shown) [Compound 958] was tested. Which IC50 did it give?
A: < 0.1 µM

Q: Which IC50 does the source give for C[C@H]1C[C@@]2(CCN1Cc1cnn(C[C@H](O)CO)c1)OCCc1c2sc(C(F)(F)F)c1CO [Compound 899] here?
A: 0.1 to 0.5 µM

Q: How did the IC50 turn out when CCc1cc2c(s1)CCO[C@@]21CCN(Cc2cn(Cc3cc(C)n[nH]3)nn2)[C@@H](C)C1 [Compound 64] was run?
A: < 0.1 µM

Q: For C[C@H]1C[C@@]2(CCN1Cc1ccc(OCC(=O)N3CCOCC3)cc1)OC[C@H](O)c1cc(Cl)sc12 [Compound 798], which IC50 is on record?
A: < 0.1 µM

Q: How did the IC50 turn out when CNC(=O)C(C)(O)Cn1cc(CN2CC[C@]3(C[C@@H]2C)OCCc2c3sc(C(F)(F)F)c2CO)cn1 (stereo partly drawn) [Compound 990, 2-Hydroxy-3-[4-[[(2′S, 7R)-3-(hydroxymethyl)-2′-methyl-2-(trifluoromethyl)spiro[4,5-dihydrothieno[2,3-c]pyran-7,4′-piperidine]-1′-yl]methyl]pyrazol-1-yl]-N,2-dimethyl-propanamide] was run?
A: < 0.1 µM

Q: C[C@H]1C[C@@]2(CCN1CCCn1cccn1)OCCc1c2sc(Cl)c1CO [Compound 721] was tested. Which IC50 did it give?
A: 0.5 to 1 µM

Q: With Cc1cc2c(s1)CCO[C@@]21CCN(CC(O)C(N)=O)[C@@H](C)C1 (stereo partly shown) [Compound 501] as the molecule, how does the IC50 read?
A: 0.1 to 0.5 µM

Q: With CCc1cc2c(s1)CCO[C@@]21CCN(Cc2cn(CC(CO)OC)nn2)[C@@H](C)C1 (stereo partly shown) [Compound 139] as the molecule, how does the IC50 read?
A: < 0.1 µM

Q: Which IC50 does the source give for C[C@H]1C[C@@]2(CCN1Cc1cnn(CC(O)c3ccc(F)cn3)c1)OCCc1c2sc(C(F)(F)F)c1CO (stereo partly shown) [Compound 937] here?
A: < 0.1 µM

Q: For C[C@H]1C[C@@]2(CCN1Cc1cnn(C[C@@H](O)C(N)=O)c1)OC[C@@H](O)c1cc(C(F)(F)F)sc12 [Compound 992, (2R)-2-hydroxy-3-[4-[[(2′S,4S,7R)-4-hydroxy-2′-methyl-2-(trifluoromethyl)spiro[4,5-dihydrothieno[2,3-c]pyran-7,4′-piperidine]-1′-yl]methyl]pyrazol-1-yl]propanamide], which IC50 is on record?
A: < 0.1 µM

Q: Which IC50 does the source give for C[C@H]1C[C@@]2(CCN1Cc1cnn(CCS(C)(=O)=O)c1)OCC(C#N)c1cc(Cl)sc12 (stereo partly drawn) [Compound 856, (2′S, 7R)-2-chloro-2′-methyl-1′-[[1-(2-methylsulfonylethyl)pyrazol-4-yl]methyl]spiro[4,5-dihydrothieno[2,3-c]pyran-7,4′-piperidine]-4-carbonitrile] here?
A: < 0.1 µM

Q: Which IC50 does the source give for CC(C)Cc1cc2c(s1)CCO[C@@]21CCN(Cc2cnn(C)c2)[C@@H](C)C1 [Compound 521] here?
A: < 0.1 µM

Q: How did the IC50 turn out when CCc1cc2c(s1)CCO[C@@]21CCN(CC2CN(C(=O)OC)C2)[C@@H](C)C1 [Compound 424, methyl 3-[[(2′S,4R)-2-ethyl-2′-methyl-spiro[6,7-dihydrothieno[3,2-c]pyran-4,4′-piperidine]-1′-yl]methyl]azetidine-1-carboxylate] was run?
A: 0.5 to 1 µM

Q: For CCc1cc2c(s1)CCO[C@@]21CCN(C[C@H]2C[C@@H](NC(=O)C3CNC(=O)O3)C2)[C@@H](C)C1 (stereo partly shown) [Compound 361], which IC50 is on record?
A: 0.1 to 0.5 µM

Q: With CCc1cc2c(s1)CCO[C@@]21CCN(CC2CN(C(=O)c3cnc(C#N)nc3)C2)[C@@H](C)C1 [Compound 458] as the molecule, how does the IC50 read?
A: 0.1 to 0.5 µM

Q: Which IC50 does the source give for CCc1cc2c(s1)CCO[C@@]21CCN(C2CCCC2O)[C@@H](C)C1 (stereo partly shown) [Compound 234] here?
A: < 0.1 µM

Q: How did the IC50 turn out when CCc1cc2c(s1)C(C)COC21CCN(Cc2cnn(C)c2)CC1 (single isomer, unassigned) [Compound 1171, 2-ethyl-7-methyl-1′-[(1-methylpyrazol-4-yl)methyl]spiro[6,7-dihydrothieno[3,2-c]pyran-4,4′-piperidine]] was run?
A: 0.5 to 1 µM

Q: For CCc1cc2c(s1)CCO[C@@]21CCN(CC2CN(C(=O)CS(=O)(=O)CC)C2)[C@@H](C)C1 [Compound 459], which IC50 is on record?
A: < 0.1 µM

Q: With C[C@H]1C[C@@]2(CCN1Cc1cnn(C)c1)OCC(O)(c1ccccc1)c1cc(Cl)sc12 (stereo partly drawn) [Compound 849, (2′S,7R)-2-chloro-2′-methyl-1′-[(1-methylpyrazol-4-yl)methyl]-4-phenyl-spiro[5H-thieno[2,3-c]pyran-7,4′-piperidine]-4-ol] as the molecule, how does the IC50 read?
A: 0.1 to 0.5 µM

Q: With CCc1ncc(CN2CC[C@]3(C[C@@H]2C)OCCc2c3sc(Cl)c2CO)cn1 [Compound 733] as the molecule, how does the IC50 read?
A: 0.1 to 0.5 µM

Q: Which IC50 does the source give for CCc1cc2c(s1)CCO[C@@]21CCN(C[C@H]2C[C@@H](NC(=O)Cn3cncn3)C2)[C@@H](C)C1 [Compound 354] here?
A: 0.1 to 0.5 µM

Q: Which IC50 does the source give for C[C@H]1CC2(CCN1Cc1cnn(CCS(C)(=O)=O)c1)OCC1(CC1)c1cc(Cl)sc12 (stereo partly shown) [Compound 1022, (2″S)-2′-chloro-2″-methyl-1″-((1-(2-(methylsulfonyl)ethyl)-1H-pyrazol-4-yl)methyl)-5′H-dispiro[cyclopropane-1,4′-thieno[2,3-c]pyran-7′,4″-piperidine]] here?
A: < 0.1 µM

Q: With CCc1cc2c(s1)CCOC21CCN(Cc2ccc(C(=O)N[C@H]3CC[C@H](O)CC3)nc2)CC1 [Compound 1043, 5-((2′-ethyl-6′,7′-dihydrospiro[piperidine-4,4′-thieno[3,2-c]pyran]-1-yl)methyl)-N-((1r,4r)-4-hydroxycyclohexyl)picolinamide] as the molecule, how does the IC50 read?
A: < 0.1 µM

Q: Which IC50 does the source give for CCc1cc2c(s1)CCO[C@@]21CCN(C[C@H]2C[C@@H](NS(=O)(=O)c3ccccc3)C2)[C@@H](C)C1 [Compound 397] here?
A: < 0.1 µM

Q: For C[C@H]1C[C@@]2(CCN1Cc1ccc3c(c1)n(C)c(=O)n3C)OCCc1cc(Cl)sc12 [Compound 664], which IC50 is on record?
A: < 0.1 µM

Q: For CCc1cc2c(s1)CCO[C@@]21CCN(C[C@H]2C[C@@H](NS(=O)(=O)c3ccc(F)cc3)C2)[C@@H](C)C1 [Compound 399], which IC50 is on record?
A: < 0.1 µM

Q: How did the IC50 turn out when CCc1cc2c(s1)CCOC21CCN(Cc2cn(C(C)C(=O)NCCO)nn2)CC1 (stereo not shown) [Compound 1117] was run?
A: 0.5 to 1 µM

Q: With CCc1cc2c(s1)CCO[C@@]21CCN(CC(C)O)[C@@H](C)C1 (stereo partly shown) [Compound 242] as the molecule, how does the IC50 read?
A: 0.1 to 0.5 µM

Q: With CCc1cc2c(s1)CCO[C@@]21CCN(Cc2cnc(N[C@@H]3C(=O)NC[C@H]3O)nc2)[C@@H](C)C1 [Compound 220] as the molecule, how does the IC50 read?
A: < 0.1 µM
